Active and inactive are the calls of the source. The rule behind the calls is not given here.
Legend:
[1] = yeast lifespan-shortening chemical project counter-assay, dose-response inhibition of growth under permissive conditions (AID 850); settings: Saccharomyces cerevisiae growth inhibition, permissive control, measured here: maximum growth inhibition, stronger effect = higher value;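 note: growth read as optical density after one day of incubation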
[2] = test system: Saccharomyces cerevisiae growth inhibition, permissive control; experiment: as above

Row | Structure (SMILES) | inhibition ([1]; at 50 µM) | IC50 [2] | further results
1 | Oc1c(Cl)cc(Cl)c2c1NCCC2 | 99.8% | 15.9 µM | –
2 | COc1cccc(-n2nnnc2S(C)(=O)=O)c1 | 83.2% | 23.9 µM | –
3 | CC1Cc2ccccc2N1C(=O)CSC1=NCCS1 (stereo unspecified) | – | > 100 µM (inactive) | inhibition ([1]; at 0.781 µM): 16.7%
4 | Fc1ccc(Br)cc1C1C=C(c2cccnc2)Nc2ncnn21 (stereo unspecified) | 26.3% | > 100 µM (inactive) | –
5 | O=C(O)c1ccc(SCc2cnc(Cl)s2)cc1 | 99.2% | 4.91 µM | –
6 | Cc1cc(N/N=C/c2ccc(Cl)cc2Cl)nc(NCc2ccccc2)n1 | 99.2% | 31.7 µM | –
7 | Cc1cccc(C(=O)NC(=S)NNC(=O)c2cccs2)c1 | 76% | 19.9 µM | –
8 | CC1CCN(c2nc(/C=C/c3ccccc3)nc3ccccc23)CC1 | 100% | 22.2 µM | –
9 | Cc1ccc(N/N=C(\C#N)C(N)=S)c(C)c1 | – | > 100 µM (inactive) | inhibition ([1]; at 25 µM): 4.57%
10 | Cc1ccc(O)c(-c2cc(-c3cccc(F)c3)n[nH]2)c1 | 96.9% | 25 µM | –
11 | CCOC(=O)c1c(/N=C/c2cc([N+](=O)[O-])ccc2O)sc(C)c1C | – | 39.9 µM | inhibition ([1]; at 25 µM): 52.7%
12 | Cc1ccc(/C=C2\C(=O)Nc3ccccc32)o1 | – | > 100 µM (inactive) | inhibition ([1]; at 25 µM): 26.6%
13 | O=Cc1c(Sc2ccccc2)nc2ccccn2c1=O | – | > 100 µM (inactive) | inhibition ([1]; at 12.5 µM): 2.01%
14 | O=c1c(-c2ccc(Cl)cc2)[n+]([O-])c2ccccc2n1O | – | 7.82 µM | inhibition ([1]; at 25 µM): 99.8%
15 | C=CCSc1nnc2nc3c(nn12)c1cc(C)ccc1n3CC=C | – | > 100 µM (inactive) | inhibition ([1]; at 25 µM): 16.6%
16 | COCC(C)OC(=O)/C(C#N)=C\c1coc2ccc(C)cc2c1=O (stereo unspecified) | 16.6% | > 100 µM (inactive) | –
17 | CCCCn1c(/N=C/c2c[nH]c3ccccc23)nc2ccccc21 | – | > 100 µM (inactive) | inhibition ([1]; at 0.781 µM): 7.75%
18 | CCc1ccc2c(c1)C1(NN=C(c3ccccc3)S1)C(=O)N2 (stereo unspecified) | 97.5% | 27.5 µM | –
19 | O=C(O)c1ccc2c3c(ncnc13)-c1ccccc1C2=O | 98.6% | 5.54 µM | –
20 | Nc1c(Nc2ccccc2)c2ccccc2oc1=O | 47.2% | 47.1 µM | –
21 | CCOC(=O)c1cc([N+](=O)[O-])c([N+](=O)[O-])cc1NC(C)=O | – | < 0.098 µM | inhibition ([1]; at 12.5 µM): 99.6%

Row | Structure (SMILES) | inhibition ([1]; at 50 µM) | IC50 [2] | further results
22 | Cn1cccc1C(=O)Nc1nc(-c2ccccn2)cs1 | 97.9% | 22.5 µM | –
23 | COC1=C(c2ccccc2)C(=O)c2ccccc2C1=O | 96.4% | 19.8 µM | –
24 | Cc1cc(O)c(/C=N/Nc2cccc(Cl)c2)c(=O)o1 | 80.8% | 26.7 µM | –
25 | Cc1ccccc1N=Cc1cccc(O)c1O | 99.2% | 7.59 µM | –
26 | COc1ccc(NC(=O)C2CCCN2S(=O)(=O)c2cccc3cccnc23)c(OC)c1 (stereo unspecified) | 102% | 5.82 µM | –
27 | N#C/C(=C/c1cn(-c2ccccc2)nc1-c1cccc(OCc2ccc(F)cc2)c1)C(=O)NCCCn1ccnc1 | – | > 100 µM (inactive) | inhibition ([1]; at 0.391 µM): 4.5%
28 | O=S(=O)(/N=C(\Sc1ccc(Cl)cc1)c1ccccc1)c1ccccc1 | 74% | 33.3 µM | –
29 | Cn1c(SCC(=O)Nc2ccccc2)nc(O)cc1=O | 76.2% | 33.2 µM | –
30 | N/C(Cc1ccccc1)=N\OC(=O)c1cccc2ccccc12 | 100% | 8.26 µM | –
31 | Cc1ccccc1OCCCN1C(=O)C(=O)c2cccc(C)c21 | – | > 100 µM (inactive) | inhibition ([1]; at 25 µM): 24.9%
32 | CCOc1cc(C2CC(=O)N3CN(C4CCCCC4)CSC3=C2C#N)ccc1O (stereo unspecified) | – | > 100 µM (inactive) | inhibition ([1]; at 0.781 µM): 8.66%
33 | CCc1ccc(S(=O)(=O)NCCc2cn3ccsc3n2)s1 | – | > 100 µM (inactive) | inhibition ([1]; at 25 µM): 10.4%
34 | CCCCCCCCCCCCCCCC[n+]1cccc2ccccc21 | 100% | 0.701 µM | –
35 | CC12C(=O)N(c3cccc4cccnc34)C(=O)C1C1C=CC2C1 (stereo unspecified) | – | > 100 µM (inactive) | inhibition ([1]; at 0.781 µM): 13.8%
36 | CN1CCc2cc3c(c4c2[C@H]1[C@H](O)c1ccccc1-4)OCO3 | 11.1% | > 100 µM (inactive) | –
37 | CCc1cccc2c(C(=O)COC(=O)c3ccc([N+](=O)[O-])s3)c[nH]c12 | 99.4% | 28 µM | –
38 | O=C1OCC(CO)(CO)N=C1NNc1cc(Cl)ccc1Cl | 99.2% | 11.4 µM | –
39 | Cc1csc(NC(=O)Cc2coc3cc(C)c(C(C)C)cc23)n1 | – | > 100 µM (inactive) | inhibition ([1]; at 3.125 µM): 10.1%
40 | Cc1cc(C)cc(NS(=O)(=O)c2cnc(Cl)c(Cl)c2)c1 | – | > 100 µM (inactive) | inhibition ([1]; at 12.5 µM): 19.5%
41 | CC1CCC2(CC1)NC(=S)N(c1ccccc1)N2 (stereo unspecified) | 97.5% | 14.1 µM | –
42 | O=c1oc2ccccc2cc1-c1cn2cccnc2n1 | – | > 100 µM (inactive) | inhibition ([1]; at 12.5 µM): 13.2%

Row | Structure (SMILES) | inhibition ([1]; at 50 µM) | IC50 [2] | further results
43 | Cc1ccc(S(=O)(=O)Nc2ccc(SC(F)F)cc2)c(C)c1 | – | > 100 µM (inactive) | inhibition ([1]; at 0.781 µM): 21.4%
44 | Cc1cc(C(=O)COC(=O)c2ccc[nH]c2=O)c(C)n1-c1ccc(F)cc1 | 12.8% | > 100 µM (inactive) | –
45 | COc1ccc2c(C)nc(Nc3nc(C)c(C)c(=O)[nH]3)nc2c1 | 50.7% | 44.6 µM | –
46 | Cc1ccc(OC(=S)Nc2ccc(O)cc2)cc1 | 99.6% | 16.3 µM | –
47 | O=C(O)CCn1cc(/C=C/C(=O)c2ccc(Cl)cc2)c(-c2ccc(Br)cc2)n1 | – | > 100 µM (inactive) | inhibition ([1]; at 12.5 µM): 15.3%
48 | COc1ccc(C(=O)C(C)(C)NO)cc1 | 50.7% | 46.8 µM | –
49 | c1ccc2c(c1)C(=Nn1cnnc1)c1ccccc1-2 | – | > 100 µM (inactive) | inhibition ([1]; at 0.391 µM): 7.85%
50 | Cc1cc(/C=N/n2cnnc2)c(C)n1-c1ccc(OCc2ccc(Cl)cc2Cl)cc1 | – | > 100 µM (inactive) | inhibition ([1]; at 25 µM): 25.7%
51 | CCN(CC)c1ccc(S(=O)(=O)N2CCOCC2)cc1NC(=O)CSc1cccc[n+]1[O-] | 96.5% | 25.3 µM | –
52 | O/N=C/c1ccc(OCc2ccccc2)c(Br)c1 | – | > 100 µM (inactive) | inhibition ([1]; at 0.781 µM): 11.2%
53 | C=CCN1C(C(=O)c2ccccc2)=C(OC(=O)COc2ccccc2)c2ccccc2S1(=O)=O | 65.8% | 43.1 µM | –
54 | O=C(O)C1C2C=CC(O2)C1C(=O)NC1CCCc2ccccc21 (stereo unspecified) | – | > 100 µM (inactive) | inhibition ([1]; at 6.25 µM): 10.9%
55 | Cc1ccc2nc(/C(C#N)=C\c3ccc([N+](=O)[O-])o3)[nH]c2c1 | 99.4% | 9.15 µM | –
56 | O=c1[nH][nH]cc1C=Nc1ccccc1O | – | > 100 µM (inactive) | inhibition ([1]; at 1.563 µM): 12.5%
57 | Cc1nc2c(F)c(F)c(C(F)(F)F)c(F)c2[nH]1 | – | > 100 µM (inactive) | inhibition ([1]; at 0.391 µM): 17.4%
58 | O=C1C(=O)c2ccccc2-c2ccccc21 | 99.2% | 1.01 µM | –
59 | CN1CCN(C2=Cc3cc(Cl)ccc3Sc3cc(F)ccc32)CC1 | 100% | 20.4 µM | –
60 | Oc1c(Cl)cc(Cl)c(Cl)c1Cc1c(O)c(Cl)cc(Cl)c1Cl | – | > 100 µM (inactive) | inhibition ([1]; at 6.25 µM): 23.3%
61 | Nc1c(C(=O)NCCc2ccccc2)c2nc3ccccc3nc2n1CCN1CCOCC1 | 99.8% | 42.4 µM | –
62 | CCOC(=O)c1c(-c2ccc(-c3ccccc3)cc2)csc1NC(=O)CCN1CCOCC1 | 94.6% | 15.5 µM | –
63 | CC1=C(C)/C(=N\OS(=O)(=O)c2ccccc2)C=CC1=O | 99% | 6.14 µM | –
